Measurements reported in publication PMC10746543, “Design principles for cyclin K molecular glue degraders” (Nature Chemical Biology, 2023).
Several values for one entry are separate records, joined by “and”; a condition that tells them apart may be missing. Equal entries are not always repeated. Where two headings read alike, the source gives them in different places.

Tests used:
CDK12–cyclin K and DDB1 = molecular target: T1, CDK12–cyclin K and DDB1 (Homo sapiens, UniProt Q16531+Q9NYV4, K965R); test: TR-FRET ternary complex formation assay (compound titration); type: binding
T1 construct: His6–CDK12 (a.a. 713–1,052); full-length or beta-propeller B domain deletion (ΔBPB: a.a. 396–705 deleted) constructs of His6–DDB1ΔBPB, StrepII–Avi–DDB1, or His6–Spy–DDB1; made in house; host or cells: Trichoplusia ni High Five insect cells (baculovirus)
T1 sequence (Q9NYV4 713-1052 K965R): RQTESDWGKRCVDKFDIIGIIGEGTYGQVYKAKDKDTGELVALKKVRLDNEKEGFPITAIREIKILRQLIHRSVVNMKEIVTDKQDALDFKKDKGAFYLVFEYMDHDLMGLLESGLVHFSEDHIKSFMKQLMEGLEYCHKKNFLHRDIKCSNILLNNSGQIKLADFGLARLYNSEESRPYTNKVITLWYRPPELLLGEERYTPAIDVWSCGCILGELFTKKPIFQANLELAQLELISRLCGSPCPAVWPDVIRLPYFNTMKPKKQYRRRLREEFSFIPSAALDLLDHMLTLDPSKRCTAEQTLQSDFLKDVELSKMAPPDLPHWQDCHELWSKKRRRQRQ
T1 sequence (O75909 1-267 partner): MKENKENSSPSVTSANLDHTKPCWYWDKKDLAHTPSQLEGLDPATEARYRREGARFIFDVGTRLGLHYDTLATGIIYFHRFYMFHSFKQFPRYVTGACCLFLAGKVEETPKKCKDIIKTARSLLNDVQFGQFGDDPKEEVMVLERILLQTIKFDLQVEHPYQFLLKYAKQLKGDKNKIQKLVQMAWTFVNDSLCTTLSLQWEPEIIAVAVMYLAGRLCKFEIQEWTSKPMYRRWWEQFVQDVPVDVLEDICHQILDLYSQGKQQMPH
T1 sequence (Q16531 whole entry): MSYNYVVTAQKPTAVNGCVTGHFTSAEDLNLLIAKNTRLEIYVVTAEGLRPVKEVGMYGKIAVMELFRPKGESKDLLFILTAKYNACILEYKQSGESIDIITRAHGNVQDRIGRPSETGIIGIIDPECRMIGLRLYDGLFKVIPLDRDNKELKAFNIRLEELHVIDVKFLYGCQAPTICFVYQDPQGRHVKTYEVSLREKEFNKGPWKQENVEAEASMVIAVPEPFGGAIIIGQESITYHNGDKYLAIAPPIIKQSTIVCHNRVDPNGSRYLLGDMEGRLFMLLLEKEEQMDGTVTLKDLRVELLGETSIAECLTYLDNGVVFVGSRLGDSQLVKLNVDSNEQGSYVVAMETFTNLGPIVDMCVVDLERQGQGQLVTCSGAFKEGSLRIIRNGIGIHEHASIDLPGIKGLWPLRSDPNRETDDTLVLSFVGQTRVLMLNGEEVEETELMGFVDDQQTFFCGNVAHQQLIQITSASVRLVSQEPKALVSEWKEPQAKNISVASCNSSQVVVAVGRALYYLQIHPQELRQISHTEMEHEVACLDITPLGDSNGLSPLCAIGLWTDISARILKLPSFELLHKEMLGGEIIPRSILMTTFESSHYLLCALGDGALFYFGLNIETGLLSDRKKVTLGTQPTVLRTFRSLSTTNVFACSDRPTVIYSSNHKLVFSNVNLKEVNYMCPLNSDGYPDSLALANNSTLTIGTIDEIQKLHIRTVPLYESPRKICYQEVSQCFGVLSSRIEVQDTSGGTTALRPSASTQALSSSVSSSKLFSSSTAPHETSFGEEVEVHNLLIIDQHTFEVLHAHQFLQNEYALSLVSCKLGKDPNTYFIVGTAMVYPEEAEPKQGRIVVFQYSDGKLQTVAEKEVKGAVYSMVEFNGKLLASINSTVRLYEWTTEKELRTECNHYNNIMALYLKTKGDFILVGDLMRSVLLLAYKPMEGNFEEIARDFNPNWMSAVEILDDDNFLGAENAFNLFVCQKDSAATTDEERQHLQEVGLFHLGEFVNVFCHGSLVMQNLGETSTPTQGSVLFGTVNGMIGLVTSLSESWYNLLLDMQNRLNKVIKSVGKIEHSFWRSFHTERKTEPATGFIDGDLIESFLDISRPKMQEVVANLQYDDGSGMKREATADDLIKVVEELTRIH
How it was run: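 Background fluorescence is reduced by reading 70 μs after excitation, and complex formation is followed as the 520:490 nm fluorescence ratio.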

[1] = system: cyclin K–eGFP degradation reporter; test: Cyclin K reporter stability analysis (dual-color cyclin K–eGFP reporter); type: cell-based, human; details: Supplementary Table 2; HEK293T cycK-eGFP reporter, 5 h; read-out: Cellular assays DC50
How it was run: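 HEK293T–Cas9 cells carrying the cyclin K–eGFP reporter were seeded at 1 × 10^6 ml^−1 and exposed to drug or DMSO for 5 h. Flow cytometry gave geometric means of eGFP and mCherry in round, mCherry-positive cells. The eGFP/mCherry ratio was normalized to the mean of three DMSO controls.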

HEK293T cells = test: Drug sensitivity assay (CellTiter-Glo viability) with or without MLN4924 pretreatment; type: cell-based, human; details: Supplementary Table 2
How it was run: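 First, cells (HEK293T–Cas9, 0.15 × 10^6 ml^−1) are exposed to DMSO or 100 nM MLN4924. Next, drugs follow at 2 h. Finally, CellTiter-Glo is read at day 3 and normalised to DMSO.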

CDK12–cyclin K = CDK12–cyclin K (Homo sapiens, UniProt Q9NYV4); test: Lanthascreen kinase binding assay, CDK12; details: for Lanthascreen raw signal, sheet CDK12: series r37, duplicates
Chain of CDK12–cyclin K (Q9NYV4 713-1052): as the sequence (Q9NYV4 713-1052 K965R) above, with R253K counted along it
Chain of CDK12–cyclin K (O75909 1-267 partner limits assumed): as the sequence (O75909 1-267 partner) above
Procedure: (§1) Lanthascreen experiments were performed using commercially available reagents (Thermo Fisher) and according to the manufacturer’s instructions.

CDK9–cyclin T = molecular target: T2, CDK9–cyclin T (Homo sapiens, UniProt P50750); test: Lanthascreen kinase binding assay, CDK9; details: for Lanthascreen TR-FRET signal (raw ratio), sheet CDK9: third titration set (r25), duplicates
T2 construct: purchased Thermo Fisher
T2 sequence (P50750 whole entry): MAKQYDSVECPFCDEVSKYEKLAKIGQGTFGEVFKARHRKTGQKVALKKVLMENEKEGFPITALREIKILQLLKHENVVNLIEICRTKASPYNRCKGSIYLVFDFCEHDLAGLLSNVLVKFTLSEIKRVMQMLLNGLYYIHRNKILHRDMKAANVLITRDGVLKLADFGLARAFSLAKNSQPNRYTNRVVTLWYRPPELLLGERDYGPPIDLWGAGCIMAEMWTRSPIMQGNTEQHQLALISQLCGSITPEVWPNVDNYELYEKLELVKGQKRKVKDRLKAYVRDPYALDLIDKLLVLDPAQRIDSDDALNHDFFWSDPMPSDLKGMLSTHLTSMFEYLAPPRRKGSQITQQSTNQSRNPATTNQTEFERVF
T2 sequence (O60563 whole entry partner): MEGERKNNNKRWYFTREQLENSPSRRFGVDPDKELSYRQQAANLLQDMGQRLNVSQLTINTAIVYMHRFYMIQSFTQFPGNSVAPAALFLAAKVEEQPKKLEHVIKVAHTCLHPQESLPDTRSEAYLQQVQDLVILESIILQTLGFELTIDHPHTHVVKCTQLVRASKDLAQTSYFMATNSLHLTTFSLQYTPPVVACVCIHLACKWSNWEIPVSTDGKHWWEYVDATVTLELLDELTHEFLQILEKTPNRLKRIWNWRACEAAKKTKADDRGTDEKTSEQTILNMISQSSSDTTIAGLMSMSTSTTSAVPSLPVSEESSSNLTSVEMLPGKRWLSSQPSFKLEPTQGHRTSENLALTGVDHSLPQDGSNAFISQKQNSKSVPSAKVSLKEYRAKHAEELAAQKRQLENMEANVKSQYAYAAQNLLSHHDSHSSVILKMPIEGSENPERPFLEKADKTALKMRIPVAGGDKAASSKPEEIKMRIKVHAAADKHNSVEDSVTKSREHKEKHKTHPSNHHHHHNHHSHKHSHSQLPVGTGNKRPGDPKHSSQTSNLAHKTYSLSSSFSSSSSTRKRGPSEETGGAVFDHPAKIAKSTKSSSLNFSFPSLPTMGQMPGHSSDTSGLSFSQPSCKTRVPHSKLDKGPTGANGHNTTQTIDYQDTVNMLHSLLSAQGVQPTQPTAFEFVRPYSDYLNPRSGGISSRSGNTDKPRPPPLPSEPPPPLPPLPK
Procedure: as §1

CDK2–cyclin A = molecular target: T3, CDK2–cyclin A (Homo sapiens, UniProt P24941); test: Lanthascreen kinase binding assay, CDK2; details: for Lanthascreen signal, sheet CDK2: raw replicates, experiment r36-r46
T3 construct: purchased Thermo Fisher
Procedure: as §1

CC[C@H](CO)Nc1nc(NCc2ccc(-c3ccccn3)cc2)c2ncn(-c3cnn(C)c3)c2n1 [DS20]
TR-FRET signal at compound concentration 4.68 nM (CDK12–cyclin K and DDB1; compound concentration 4.68 nM, raw replicate titration data): 0.1341 and 0.1393 | TR-FRET signal at compound concentration 21.6 nM (CDK12–cyclin K and DDB1; compound concentration 21.6 nM, raw replicate titration data): 0.1505 and 0.1671 | TR-FRET signal at compound concentration 36 nM (CDK12–cyclin K and DDB1; compound concentration 36 nM, raw replicate titration data): 0.1763 and 0.1953 | TR-FRET signal at compound concentration 79.2001 nM (CDK12–cyclin K and DDB1; compound concentration 79.2001 nM, raw replicate titration data): 0.2244 and 0.2373 | TR-FRET signal at compound concentration 158.4 nM (CDK12–cyclin K and DDB1; compound concentration 158.4 nM, raw replicate titration data): 0.3075 and 0.3209 | TR-FRET signal at compound concentration 309.6 nM (CDK12–cyclin K and DDB1; compound concentration 309.6 nM, raw replicate titration data): 0.4615 and 0.4691 | TR-FRET signal at compound concentration 626.401 nM (CDK12–cyclin K and DDB1; compound concentration 626.401 nM, raw replicate titration data): 0.7336 and 0.7393 | TR-FRET signal at compound concentration 1252.8 nM (CDK12–cyclin K and DDB1; compound concentration 1252.8 nM, raw replicate titration data): 1.129 and 1.14 | TR-FRET signal at compound concentration 2448 nM (CDK12–cyclin K and DDB1; compound concentration 2448 nM, raw replicate titration data): 1.631 and 1.657 | TR-FRET signal at compound concentration 9936.01 nM (CDK12–cyclin K and DDB1; compound concentration 9936.01 nM, raw replicate titration data): 2.437 and 2.497 | TR-FRET signal at compound concentration 20016 nM (CDK12–cyclin K and DDB1; compound concentration 20016 nM, raw replicate titration data): 2.527 and 2.638 | DDB1–CDK12 complex formation, result in words (CDK12–cyclin K and DDB1; in vitro TR-FRET): poorer glues | EC50 (CDK12–cyclin K and DDB1; sheet MOESM7, read-out: log TR-FRET EC50 (converted)): 1.84 µM | DC50 [1]: > 10 µM | EC50 (HEK293T cells; Homo sapiens, HEK-293T, HEK293T viability, 72 h, compound alone, read-out: Cellular assays EC50): > 10 µM | Toxicity rescue (HEK293T cells; MLN4924-mediated cytotoxicity rescue, 10 µM used where n.d.): 0% | IC50 (CDK12–cyclin K; Lanthascreen, average, Extended Data Fig. 8, read-out: CDK12 IC50): > 10000 nM | IC50 (CDK12–cyclin K; Supplementary Table 2, read-out: Lanthascreen IC50 [nM] CDK12): > 10000 nM | Lanthascreen raw signal, sheet CDK12 (CDK12–cyclin K; compound 0.038147 nM): 0.01392 and 0.01331 | Lanthascreen raw signal, sheet CDK12 (CDK12–cyclin K; compound 0.152588 nM): 0.01475 and 0.01452 | Lanthascreen raw signal, sheet CDK12 (CDK12–cyclin K; compound 0.610352 nM): 0.01495 | Lanthascreen raw signal, sheet CDK12 (CDK12–cyclin K; compound 9.76563 nM): 0.01647 and 0.01469 | Lanthascreen raw signal, sheet CDK12 (CDK12–cyclin K; compound 39.0625 nM): 0.0142 and 0.01474 | Lanthascreen raw signal, sheet CDK12 (CDK12–cyclin K; compound 156.25 nM): 0.01388 and 0.01469 | Lanthascreen raw signal, sheet CDK12 (CDK12–cyclin K; compound 625 nM): 0.01464 and 0.015 | Lanthascreen raw signal, sheet CDK12 (CDK12–cyclin K; compound 2500 nM): 0.01337 and 0.01367 | Lanthascreen raw signal, sheet CDK12 (CDK12–cyclin K; compound 10000 nM): 0.01057 and 0.01115 | IC50 (CDK9–cyclin T; Supplementary Table 2, read-out: Lanthascreen IC50 [nM] CDK9): 3200 nM | Lanthascreen TR-FRET signal (raw ratio), sheet CDK9 (CDK9–cyclin T; compound 0.038147 nM): 0.01966 and 0.01664 | Lanthascreen TR-FRET signal (raw ratio), sheet CDK9 (CDK9–cyclin T; compound 0.152588 nM): 0.02094 and 0.01978 | Lanthascreen TR-FRET signal (raw ratio), sheet CDK9 (CDK9–cyclin T; compound 0.610352 nM): 0.02169 and 0.01748 | Lanthascreen TR-FRET signal (raw ratio), sheet CDK9 (CDK9–cyclin T; compound 9.76563 nM): 0.02175 and 0.01903 | Lanthascreen TR-FRET signal (raw ratio), sheet CDK9 (CDK9–cyclin T; compound 39.0625 nM): 0.02145 and 0.01745 | Lanthascreen TR-FRET signal (raw ratio), sheet CDK9 (CDK9–cyclin T; compound 156.25 nM): 0.02109 and 0.01723 | Lanthascreen TR-FRET signal (raw ratio), sheet CDK9 (CDK9–cyclin T; compound 625 nM): 0.02056 and 0.01753 | Lanthascreen TR-FRET signal (raw ratio), sheet CDK9 (CDK9–cyclin T; compound 2500 nM): 0.01726 and 0.0135 | Lanthascreen TR-FRET signal (raw ratio), sheet CDK9 (CDK9–cyclin T; compound 10000 nM): 0.01114 and 0.009536 | Lanthascreen signal, sheet CDK2 (CDK2–cyclin A; Compound 0.038147 nM): 0.01372 and 0.01355 | Lanthascreen signal, sheet CDK2 (CDK2–cyclin A; Compound 0.152588 nM): 0.01402 and 0.01425 | Lanthascreen signal, sheet CDK2 (CDK2–cyclin A; Compound 0.610352 nM): 0.0137 and 0.01464 | Lanthascreen signal, sheet CDK2 (CDK2–cyclin A; Compound 9.76563 nM): 0.01391 and 0.01419 | Lanthascreen signal, sheet CDK2 (CDK2–cyclin A; Compound 39.0625 nM): 0.01392 and 0.01397 | Lanthascreen signal, sheet CDK2 (CDK2–cyclin A; Compound 156.25 nM): 0.01435 and 0.01404 | Lanthascreen signal, sheet CDK2 (CDK2–cyclin A; Compound 625 nM): 0.01359 and 0.01432 | Lanthascreen signal, sheet CDK2 (CDK2–cyclin A; Compound 2500 nM): 0.01402 and 0.01364 | Lanthascreen signal, sheet CDK2 (CDK2–cyclin A; Compound 10000 nM): 0.01203 and 0.01167 | IC50 (CDK2–cyclin A; Lanthascreen, average, Extended Data Fig. 8, read-out: CDK2 IC50): > 10000 nM | IC50 (CDK2–cyclin A; Supplementary Table 2, read-out: Lanthascreen IC50 [nM] CDK2): > 10000 nM
